# Data reported in patent publication US5627203A, “Tricyclic oxime ethers” (Adir et Compagnie, priority 1994, dated 1997).
# Assays:
# serotonin reuptake site = target: T1, serotonin reuptake site (Rattus norvegicus, UniProt P31652); assay: Displacement of 3H-paroxetine at the serotonin reuptake site; assay type: binding; conditions: rat brain without cerebellum, read-out: IC50, serotonin reuptake sites
# T1 construct: rat brain from which the cerebellum has been removed; from tissue; host or cells: rat brain without cerebellum
# T1 sequence (P31652 whole entry): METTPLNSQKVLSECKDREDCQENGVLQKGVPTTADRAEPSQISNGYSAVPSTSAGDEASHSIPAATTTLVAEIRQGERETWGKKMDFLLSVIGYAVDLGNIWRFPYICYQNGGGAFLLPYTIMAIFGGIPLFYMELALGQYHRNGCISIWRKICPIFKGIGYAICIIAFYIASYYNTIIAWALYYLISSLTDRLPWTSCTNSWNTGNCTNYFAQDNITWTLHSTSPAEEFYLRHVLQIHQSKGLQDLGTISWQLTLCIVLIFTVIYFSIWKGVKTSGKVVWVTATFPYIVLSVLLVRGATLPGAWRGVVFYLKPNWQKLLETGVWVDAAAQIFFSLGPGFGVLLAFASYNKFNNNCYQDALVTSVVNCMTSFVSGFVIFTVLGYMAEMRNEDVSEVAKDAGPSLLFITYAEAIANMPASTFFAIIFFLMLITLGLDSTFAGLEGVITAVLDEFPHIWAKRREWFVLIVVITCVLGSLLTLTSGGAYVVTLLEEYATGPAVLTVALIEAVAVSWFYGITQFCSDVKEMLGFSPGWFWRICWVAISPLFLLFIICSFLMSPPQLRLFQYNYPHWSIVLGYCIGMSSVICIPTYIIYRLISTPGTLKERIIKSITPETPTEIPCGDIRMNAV
# Experimental: (§1) A-2: Study of the binding of the compounds of the invention to the serotonin reuptake site as well as to 5-HT1, 5-HT1A, 5-HT1B, 5-HT1D, 5-HT2, 5-HT2C, 5-HT4 serotoninergic receptors.
# (§2) The binding of the compounds of the invention is measured in accordance with conventional methods.
# for the serotonin reuptake site, by the displacement of ^3 H-paroxetinein rat brain from which the cerebellum has been removed, […]
# 5-HT1 receptors = assay: Displacement of 5-OH tryptamine at 5-HT1 receptors; assay type: binding; conditions: pig frontal cortex and striatum
# Experimental: as §1, §2
# for 5-HT1 receptors, by the displacement of 5-OH tryptamine in pig frontal cortex and striatum, […]
# 5-HT1A receptors = target: T2, 5-HT1A receptors (Rattus norvegicus, UniProt P19327); assay: Displacement of 8-OH-DPAT at 5-HT1A receptors; assay type: binding; conditions: rat hippocampus homogenates
# T2 construct: rat hippocampus homogenates; from tissue; host or cells: rat hippocampus
# T2 sequence (P19327 1-422): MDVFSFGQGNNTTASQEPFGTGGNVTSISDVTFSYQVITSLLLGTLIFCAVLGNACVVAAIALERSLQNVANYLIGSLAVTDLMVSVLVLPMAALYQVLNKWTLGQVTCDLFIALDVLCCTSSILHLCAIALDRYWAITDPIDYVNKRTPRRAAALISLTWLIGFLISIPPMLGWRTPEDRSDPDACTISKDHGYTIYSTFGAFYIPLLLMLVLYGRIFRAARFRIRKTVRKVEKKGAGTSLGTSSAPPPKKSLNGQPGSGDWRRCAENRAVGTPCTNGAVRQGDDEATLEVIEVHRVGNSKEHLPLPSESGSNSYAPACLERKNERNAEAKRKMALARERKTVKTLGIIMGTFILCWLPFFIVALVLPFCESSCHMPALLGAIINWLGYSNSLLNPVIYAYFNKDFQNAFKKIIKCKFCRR
# Experimental: as §1, §2
# for 5-HT1A receptors, by the displacement of 8-OH-DPAT in rat hippocampus homogenates, […]
# 5-HT1B receptors = target: T3, 5-HT1B receptors (Rattus norvegicus, UniProt P28564); assay: Displacement of 5-hydroxytryptamine at 5-HT1B receptors; assay type: binding; conditions: rat cortex, striatum, and globus pallidus homogenates
# T3 construct: rat cortex, striatum, and globus pallidus homogenates; from tissue; host or cells: rat cortex, striatum and globus pallidus
# T3 sequence (P28564 whole entry): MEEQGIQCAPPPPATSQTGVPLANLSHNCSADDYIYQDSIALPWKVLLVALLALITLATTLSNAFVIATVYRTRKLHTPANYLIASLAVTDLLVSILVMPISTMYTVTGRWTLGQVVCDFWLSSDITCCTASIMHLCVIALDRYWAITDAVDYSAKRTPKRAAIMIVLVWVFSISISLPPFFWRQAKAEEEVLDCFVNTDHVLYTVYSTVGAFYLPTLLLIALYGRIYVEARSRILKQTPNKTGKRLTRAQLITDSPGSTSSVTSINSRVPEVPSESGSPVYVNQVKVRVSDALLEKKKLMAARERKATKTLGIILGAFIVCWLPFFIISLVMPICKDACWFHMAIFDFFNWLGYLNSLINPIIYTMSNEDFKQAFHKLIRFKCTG
# Experimental: as §1, §2
# for 5-HT1B receptors, by the displacement of 5-hydroxytryptamine in rat cortex, striatum, and globus pallidus homogenates, […]
# 5-HT1D receptors = assay: Displacement of 5-OH-tryptamine at 5-HT1D receptors; assay type: binding; conditions: rat cortex, striatum and globus pallidus homogenates
# Experimental: as §1, §2
# for 5-HT1D receptors, by the displacement of 5-OH-tryptamine in rat cortex, striatum and globus pallidus homogenates, […]
# 5-HT2 receptors = target: T4, 5-HT2 receptors (Rattus norvegicus, UniProt P14842); assay: Displacement of aminoiodoketaneserine at 5-HT2 receptors; assay type: binding; conditions: rat frontal cortex homogenates
# T4 construct: rat frontal cortex homogenates; from tissue; host or cells: rat frontal cortex
# T4 sequence (P14842 whole entry): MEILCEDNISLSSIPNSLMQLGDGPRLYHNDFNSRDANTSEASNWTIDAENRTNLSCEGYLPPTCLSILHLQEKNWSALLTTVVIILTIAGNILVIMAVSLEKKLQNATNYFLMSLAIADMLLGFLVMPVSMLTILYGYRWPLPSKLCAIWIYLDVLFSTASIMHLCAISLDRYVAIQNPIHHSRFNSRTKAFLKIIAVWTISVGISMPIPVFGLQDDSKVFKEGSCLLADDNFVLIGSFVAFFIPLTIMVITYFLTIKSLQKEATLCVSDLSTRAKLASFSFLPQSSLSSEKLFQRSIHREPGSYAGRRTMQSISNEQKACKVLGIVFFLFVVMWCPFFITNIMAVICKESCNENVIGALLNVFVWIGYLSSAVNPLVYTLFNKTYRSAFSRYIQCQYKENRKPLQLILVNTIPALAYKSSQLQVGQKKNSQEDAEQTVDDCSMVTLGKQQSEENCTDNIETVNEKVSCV
# Experimental: as §1, §2
# for 5-HT2 receptors, by the displacement of aminoiodoketaneserine in rat frontal cortex homogenates, […]
# 5-HT2C receptors = target: T5, 5-HT2C receptors (Rattus norvegicus, UniProt P08909); assay: Displacement of N-methylmesulergine at 5-HT2C receptors; assay type: binding; conditions: rat frontal cortex and hippocampus homogenates
# T5 construct: rat frontal cortex and hippocampus homogenates; from tissue; host or cells: rat frontal cortex and hippocampus
# T5 sequence (P08909 33-460): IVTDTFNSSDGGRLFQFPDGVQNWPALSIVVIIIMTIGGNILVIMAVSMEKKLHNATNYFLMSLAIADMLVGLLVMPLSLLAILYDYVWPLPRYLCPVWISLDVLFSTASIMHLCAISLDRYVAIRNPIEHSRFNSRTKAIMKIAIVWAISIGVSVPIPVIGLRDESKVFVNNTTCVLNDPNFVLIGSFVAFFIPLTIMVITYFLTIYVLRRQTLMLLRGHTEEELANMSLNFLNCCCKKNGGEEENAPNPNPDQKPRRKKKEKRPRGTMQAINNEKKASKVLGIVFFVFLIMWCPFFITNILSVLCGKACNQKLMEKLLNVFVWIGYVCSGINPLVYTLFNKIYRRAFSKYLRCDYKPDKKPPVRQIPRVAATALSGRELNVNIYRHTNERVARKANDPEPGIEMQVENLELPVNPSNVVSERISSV
# Experimental: as §1, §2
# for 5-HT2C receptors, by the displacement of N-methylmesulergine in rat frontal cortex and hippocampus homogenates, […]
# 5-HT3 receptors = target: T6, 5-HT3 receptors (Rattus norvegicus, UniProt P35563); assay: Displacement of 3H-zacopride at 5-HT3 receptors; assay type: binding; conditions: 0.3-0.4 nM 3H-zacopride, rat area postrema homogenates, pH 7.4, 25° C., 30 minutes
# T6 construct: rat area postrema homogenates; from tissue; host or cells: rat area postrema
# T6 sequence (P35563 24-483): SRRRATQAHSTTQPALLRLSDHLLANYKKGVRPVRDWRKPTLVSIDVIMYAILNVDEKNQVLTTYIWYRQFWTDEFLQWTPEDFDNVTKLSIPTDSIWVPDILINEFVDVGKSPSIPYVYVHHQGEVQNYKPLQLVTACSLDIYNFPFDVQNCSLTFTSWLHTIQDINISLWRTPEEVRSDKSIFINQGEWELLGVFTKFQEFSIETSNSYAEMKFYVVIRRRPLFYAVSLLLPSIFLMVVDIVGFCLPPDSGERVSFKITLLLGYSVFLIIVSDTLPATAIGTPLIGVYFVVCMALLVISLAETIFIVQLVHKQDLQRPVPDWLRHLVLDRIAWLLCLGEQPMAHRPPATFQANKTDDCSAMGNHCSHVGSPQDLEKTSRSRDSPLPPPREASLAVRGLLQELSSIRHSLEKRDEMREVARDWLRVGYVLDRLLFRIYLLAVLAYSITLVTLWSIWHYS
# Experimental: A-1: Study of the binding of the compounds of the invention to 5-HT3 serotoninergic receptors
# The binding of the compounds of the invention to 5-HT3 receptors was determined for each compound by measuring the displacement of ^3 H-zacopride (specific ligand for 5-HT3 receptors) in rat area postrema homogenates.
# Aliquot amounts (50-100 μl) of a membrane suspension (2.5-5.0 mg of protein/cm^3) are incubated for 30 minutes at 25° C. in a Tris-HCl buffer, 25 mM, pH 7,4, in the presence of 0.3-0.4 nM 3^H -zacopride (83 ci/mmol) (total volume: 0.5 cm^3). The incubation is terminated by filtering the samples through Whatman GF/B filters which are then washed and dried. The radioactivity retained on the filters is finally calculated by spectrometry in liquid medium (Aquasol). The non-specific binding is evaluated under the same conditions using samples containing in addition 1 μM of ondansetron (5-HT3 antagonist). The displacement curves obtained by adding increasing concentrations of a test compound to the incubation medium are analysed to determine the affinity of the test compounds for 5-HT3 receptors.
# mouse = assay: Anxiolytic activity: illuminated/darkened cages test on the mouse; assay type: in vivo; conditions: 15 mg/kg, i.p. route, 5 minutes
# From the text: The anxiolytic effects of the compounds of the invention were studied in accordance with the illuminated/darkened cages test on the mouse (Crawley et al. (1981), Pharmacol. Biochem. Behav., 15, pp 695-699).
# The test uses two cages of equal size (20×20×14 cm) made of PVC. One is strongly illuminated by a 100 W bulb ("cold" light) and the other is darkened. The two cages are separated from one another by a small opaque tunnel (5×7 cm). The mice are introduced individually into the tunnel and, once they have entered the darkened cage for the first time, a recording is made over a period of 5 minutes, by means of pads connected to a computer, of the time spent by the animals in the illuminated cage as well as the number of transfers between the darkened cage and the illuminated cage. Each experimental group comprises a minimum of 15 animals.
compound,measurement,setting,value
Cc1csc2c1-n1cccc1/C2=N/OCC(C)N(C)C (stereo not shown) [Example 22],IC50,serotonin reuptake site,0.11 µM
same,IC50,5-HT1 receptors,6.9 µM
same,IC50,5-HT1A receptors,9 µM
same,IC50,5-HT1B receptors,11 µM
same,IC50,5-HT1D receptors,6.4 µM
same,IC50,5-HT2 receptors,11 µM
same,IC50,5-HT2C receptors,1.6 µM
same,IC50,5-HT3 receptors,0.001 µM
same,"Number of transfers, percentage compared with the control group",mouse,+76%
same,"Time spent in the illuminated cage, percentage compared with the control group",mouse; *p < 0.5,+92%
